Key:
[1] = molecular target: prostaglandin I2 (PGI2) receptor (IP) (Homo sapiens, UniProt P43119); assay: IP receptor cAMP agonist assay (CHO-K1 cells); format: cell-based; details: Table 22; relative to treprostinil EC50 values; * partial agonists or ambiguous dose-response curves
Experimental: (§1) Cyclic AMP assay kit: Multiscreen™ TR-FRET cAMP 1.0 No Wash Assay Kit (Multispan, Inc.)
(§2) Cells were thawed from frozen cells and resuspended in assay buffer at desired concentrations. cAMP or Calcium assays were performed according to the manufacturer's protocol using Multiscreen™ TR-FRET cAMP 1.0 No Wash Assay Kit or Multiscreen™ Calcium 1.0 No Wash Kit.
(§3) Gas Cyclic AMP (cAMP) Assay: In agonist mode testing, cells were seeded in a 384-well plate at an appropriate density and then were treated with compounds and incubated at 37° C. for 20 minutes. The reaction was terminated by […] trFluor™ Eu-labeled cAMP and trFluor™ 650-labeled anti-cAMP antibody in lysis buffer. […] All testing wells contained 0.1% DMSO in the final concentrations.
(§4) Data in graphs are represented in Mean±SD. Dose-dependent responses were fitted with sigmoidal dose-response curves allowing variable slopes using GraphPad Prism version 6 (Graphpad Prism).
(§5) These studies used cell lines overexpressing either human IP, EP2 or DP1, or EP1 receptors, and following incubation with varying concentrations of compounds, cAMP levels were measured using Fluorescence Resonance Energy Transfer (FRET).

[2] = molecular target: prostaglandin E2 (PGE2) receptor 2 (EP2) (Homo sapiens, UniProt P43116); assay: EP2 receptor cAMP agonist assay (HEK293T cells); format: cell-based; details: Table 22; relative to treprostinil EC50 values; * partial agonists or ambiguous dose-response curves
Sequence of prostaglandin E2 (PGE2) receptor 2 (EP2) (P43116 whole entry): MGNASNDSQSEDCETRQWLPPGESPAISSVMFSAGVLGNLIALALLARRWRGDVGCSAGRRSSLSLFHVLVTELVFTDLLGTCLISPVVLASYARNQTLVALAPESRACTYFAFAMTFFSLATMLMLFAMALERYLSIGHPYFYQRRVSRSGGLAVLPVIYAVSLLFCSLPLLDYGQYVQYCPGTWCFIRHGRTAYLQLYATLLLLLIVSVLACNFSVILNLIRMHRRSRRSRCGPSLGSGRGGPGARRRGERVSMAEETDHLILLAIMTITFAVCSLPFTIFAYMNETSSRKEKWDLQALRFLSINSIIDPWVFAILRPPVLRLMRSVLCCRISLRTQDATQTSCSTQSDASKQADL
Experimental: as §1, §2, §3, §4, §5

[3] = molecular target: T1, prostaglandin D2 (PGD2) receptor 1 (DP1) (Homo sapiens, UniProt Q13258); assay: DP1 receptor cAMP agonist assay (HEK293T cells); format: cell-based; details: Table 22; relative to treprostinil EC50 values; * partial agonists or ambiguous dose-response curves
T1 sequence (Q13258 1-359): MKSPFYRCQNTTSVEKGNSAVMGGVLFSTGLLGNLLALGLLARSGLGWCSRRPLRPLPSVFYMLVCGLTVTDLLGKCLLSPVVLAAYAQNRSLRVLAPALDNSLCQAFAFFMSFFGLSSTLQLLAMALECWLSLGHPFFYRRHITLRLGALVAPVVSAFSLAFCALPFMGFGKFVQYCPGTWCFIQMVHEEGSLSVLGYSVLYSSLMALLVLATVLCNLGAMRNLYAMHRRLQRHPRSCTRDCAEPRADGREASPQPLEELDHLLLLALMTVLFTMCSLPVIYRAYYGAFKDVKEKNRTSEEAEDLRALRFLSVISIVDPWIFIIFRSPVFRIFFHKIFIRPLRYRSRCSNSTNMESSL
Experimental: as §1, §2, §3, §4, §5

PGE2 receptor 1 (EP1) = molecular target: T2, PGE2 receptor 1 (EP1) (Homo sapiens, UniProt P34995); assay: EP1 receptor calcium agonist assay (HEK293T cells); format: cell-based; details: Table 22; relative to treprostinil EC50 values; * partial agonists or ambiguous dose-response curves
T2 sequence (P34995 1-402): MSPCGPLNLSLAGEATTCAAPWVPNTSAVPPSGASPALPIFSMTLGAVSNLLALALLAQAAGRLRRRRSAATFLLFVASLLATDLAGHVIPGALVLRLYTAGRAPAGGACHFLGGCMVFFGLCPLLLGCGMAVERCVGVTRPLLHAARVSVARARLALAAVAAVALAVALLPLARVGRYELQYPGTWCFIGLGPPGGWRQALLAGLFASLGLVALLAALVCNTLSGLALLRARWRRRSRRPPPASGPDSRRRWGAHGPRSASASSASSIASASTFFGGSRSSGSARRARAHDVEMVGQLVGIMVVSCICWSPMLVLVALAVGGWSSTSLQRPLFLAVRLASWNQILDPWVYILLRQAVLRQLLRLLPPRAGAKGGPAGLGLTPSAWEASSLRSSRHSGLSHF
Experimental: Calcium assay kit: Multiscreen™ Calcium 1.0 No Wash Kit (Multispan, Inc., Cat #MSCA01-1)
• EP1 Calcium and DP1 cAMP Assays: HBSS plus 20 mM HEPES • EP2 and IP1 cAMP Assays: 1 mM IBMX in HBSS plus 20 mM HEPES Instruments: FlexStation III (Molecular Devices) and FLIPR 384 (Molecular Devices)
as §2
Calcium Assay: Cells were seeded in a 384-well plate at an appropriate density. The calcium assay was conducted according to the manufacturer's protocols (Multiscreen Calcium 1.0 No Wash Assay Kit). The calcium dye loading buffer was added to the cells and incubated for 1 hour at 37° C. For agonist mode, cells were injected with Iloprost control agonist or test compound by FLIPR and calcium mobilization was monitored for 180 seconds with compound injected into the wells at the 19th second. Fluorescent emissions were read at 525 nm with excitation at 490 nm in a FLIPR 384 instrument (Molecular Devices).
Calcium Assay: Calcium assay results are expressed as “RFU” as defined in figure below. Data are represented in Mean±SEM. Dose-response curves were fitted using “Sigmoidal dose-response (variable slope)” function in GraphPad Prism 6. EC50 values were calculated based on the fitted curves.
Prostaglandin receptor activity assessments with treprostinil and treprostinil analogues have been conducted, and a historical, positive control agonist for these receptors, iloprost (for IP, EP2 and EP1) or PGD2 (for DP1), was also included. These studies used cell lines overexpressing either human IP, EP2 or DP1, or EP1 receptors, and following incubation with varying concentrations of compounds, cAMP levels were measured using Fluorescence Resonance Energy Transfer (FRET). The 665/620 (acceptor/donor emission signals) ratio is inversely proportional to the concentration of cAMP.

[4] = Hydrolysis of prodrugs to treprostinil at pH 6, 7, 8 and 40 C; format: physicochemical
From the text: Tables 24, 25 and 26 present data for hydrolysis of selected treprostinil prodrugs at pH 6, 7 and 8, respectively, and 40 C.

[5] = regardless of the route of administration; cited from earlier work
[6] = oral delivery, animal studies; cited from earlier work

Sequence of prostaglandin I2 (PGI2) receptor (IP) (P43119 whole entry): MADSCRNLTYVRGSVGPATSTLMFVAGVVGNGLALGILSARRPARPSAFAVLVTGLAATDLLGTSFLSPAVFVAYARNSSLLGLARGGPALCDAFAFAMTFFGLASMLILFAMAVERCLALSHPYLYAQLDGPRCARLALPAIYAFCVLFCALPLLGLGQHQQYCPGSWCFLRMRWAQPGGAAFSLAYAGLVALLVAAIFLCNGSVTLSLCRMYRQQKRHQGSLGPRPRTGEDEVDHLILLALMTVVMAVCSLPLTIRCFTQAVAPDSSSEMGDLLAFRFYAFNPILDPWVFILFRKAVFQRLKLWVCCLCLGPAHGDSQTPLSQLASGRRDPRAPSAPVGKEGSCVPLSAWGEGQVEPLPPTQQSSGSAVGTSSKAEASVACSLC

| IP Relative to Tre [1] | EP2 Relative to Tre [2] | DP1 Relative to Tre [3] | EP1 Relative to Tre (PGE2 receptor 1 (EP1)) | Hydrolysis to treprostinil, % Area, t = 1 week ([4]; pH 6, 40 C.) | Hydrolysis to treprostinil, % Area, t = 2 weeks ([4]; pH 6, 40 C.) | Hydrolysis to treprostinil, % Area, t = 3 weeks ([4]; pH 6, 40 C.) | Hydrolysis to treprostinil, % Area, t = 1 week ([4]; pH 7, 40 C.) | Hydrolysis to treprostinil, % Area, t = 2 weeks ([4]; pH 7, 40 C.) | Hydrolysis to treprostinil, % Area, t = 3 weeks ([4]; pH 7, 40 C.) | Hydrolysis to treprostinil, % Area, t = 1 week ([4]; pH 8, 40 C.) | Hydrolysis to treprostinil, % Area, t = 2 weeks ([4]; pH 8, 40 C.) | Hydrolysis to treprostinil, % Area, t = 3 weeks ([4]; pH 8, 40 C.) | Compound | half-life once absorbed [5] | first-pass effect [6] |
| --- | --- | --- | --- | --- | --- | --- | --- | --- | --- | --- | --- | --- | --- | --- | --- |
| 599x | 187x* | 89x | 64x* | 0.13 % Area | 0.29 % Area | 0.39 % Area | 0.96 % Area | 1.9 % Area | 2.7 % Area | 6.0 % Area | 11.4 % Area | 16.9 % Area | CCCCCC(CCC1C(O)CC2Cc3c(cccc3OCC(=O)O)CC21)OC(=O)COc1ccccc1 (stereo not drawn) [Prodrug LXV] | – | – |
| – | – | – | – | – | – | – | – | – | – | – | – | – | CCCCC[C@H](O)CC[C@@H]1[C@H]2Cc3cccc(OCC(=O)O)c3C[C@H]2C[C@H]1O [Treprostinil] | about 1 hour | approximately 60% |
